Experimental findings from patent publication US20260062422A1 (Halda Therapeutics OpCo, Inc., priority 2022, published 2026) are described below.

For the experiment, the target named is T1, androgen receptor (Homo sapiens, UniProt P10275).
T1 sequence (P10275 1-920 T878A): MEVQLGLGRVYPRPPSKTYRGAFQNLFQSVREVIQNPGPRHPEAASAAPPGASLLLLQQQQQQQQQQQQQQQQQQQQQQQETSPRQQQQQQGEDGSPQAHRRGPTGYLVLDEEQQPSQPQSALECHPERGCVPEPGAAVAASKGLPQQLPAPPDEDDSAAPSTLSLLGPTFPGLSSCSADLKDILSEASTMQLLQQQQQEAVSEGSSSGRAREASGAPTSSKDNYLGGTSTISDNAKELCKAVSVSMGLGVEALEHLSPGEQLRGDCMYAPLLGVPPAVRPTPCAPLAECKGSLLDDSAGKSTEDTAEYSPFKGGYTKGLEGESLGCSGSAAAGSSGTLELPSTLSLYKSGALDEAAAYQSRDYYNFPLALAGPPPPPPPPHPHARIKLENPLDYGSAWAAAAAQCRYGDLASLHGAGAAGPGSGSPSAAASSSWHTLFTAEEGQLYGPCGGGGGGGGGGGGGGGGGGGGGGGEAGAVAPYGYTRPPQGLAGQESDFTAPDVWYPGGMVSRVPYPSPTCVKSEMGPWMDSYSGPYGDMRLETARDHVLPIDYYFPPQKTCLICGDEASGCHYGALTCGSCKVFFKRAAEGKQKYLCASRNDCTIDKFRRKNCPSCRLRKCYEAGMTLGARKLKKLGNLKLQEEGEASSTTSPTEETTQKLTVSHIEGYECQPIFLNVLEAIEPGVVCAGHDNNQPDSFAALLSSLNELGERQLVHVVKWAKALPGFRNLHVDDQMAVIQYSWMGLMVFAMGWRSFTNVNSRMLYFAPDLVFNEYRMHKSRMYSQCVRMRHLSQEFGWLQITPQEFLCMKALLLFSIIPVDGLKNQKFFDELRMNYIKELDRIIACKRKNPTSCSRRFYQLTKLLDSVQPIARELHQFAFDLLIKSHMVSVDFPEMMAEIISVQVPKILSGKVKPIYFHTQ
Kind of experiment: Assay for binding affinity to androgen receptor ([3H]methyltrienolone radioligand, cell cytosol). The note with it: 1 nM [3H]methyltrienolone, 24 hours at 4° C., Table 5. The procedure:
Fractions of cell cytosol ([…] cell/point) were incubated for 24 hours at 4° C. with 1 nM [^3H]methyltrienolone in the absence or presence of the test compound in a buffer containing 25 mM Hepes-Tris (pH 7.4), 1 mM EDTA, 10 mM Na2MoO4, 2 mM DTT, 5 μM triamcinolone acetonide, and 10% glycerol. Nonspecific binding was determined in the presence of 1 μM testosterone. Following incubation, the samples were filtered rapidly under vacuum through glass fiber filters (GF/B, Packard) presoaked with 0.3% PEI and rinsed several times with ice-cold 50 mM Tris-HCl using a 96-sample cell harvester (Unifilter, Packard). The filters were dried then counted for radioactivity in a scintillation counter (Topcount, Packard) using a scintillation cocktail (Microscint 0, Packard). The results are expressed as a percent inhibition of the control radioligand specific binding. The standard reference compound is testosterone, which is tested in each experiment at several concentrations to obtain a competition curve from which its IC50 is calculated.

The structures appear in SMILES notation.

As usually defined, the Kd is the concentration at which binding is half-saturated. `Cc1sc2c(c1C)C(c1ccc(Cl)cc1)=N[C@@H](CC(=O)NCCCCCCCOC1CCN(c3ncc(C(=O)N[C@H]4C(C)(C)[C@H](Oc5ccc(C#N)c(Cl)c5)C4(C)C)cn3)CC1)c1nnc(C)n1-2` [Compound I-24]: the equilibrium dissociation constant (Kd) was < 50 nM. Under `Cc1sc2c(c1C)C(c1ccc(Cl)cc1)=N[C@@H](CC(=O)NCCOCCOCCOCC1CCN(c3ncc(C(=O)N[C@H]4C(C)(C)[C@H](Oc5ccc(C#N)c(Cl)c5)C4(C)C)cn3)CC1)c1nnc(C)n1-2` [Compound I-17] stands < 50 nM; under `Cc1sc2c(c1C)C(c1ccc(Cl)cc1)=N[C@@H](CC(=O)NCCCN1CCN(CC3CCN(c4ncc(C(=O)N[C@H]5C(C)(C)[C@H](Oc6ccc(C#N)c(Cl)c6)C5(C)C)cn4)CC3)CC1)c1nnc(C)n1-2` [Compound I-36, N-((1r,3r)-3-(3-chloro-4-cyanophenoxy)-2,2,4,4-tetramethylcyclobutyl)-2-(4-((4-(3-(2-((S)-4-(4-chlorophenyl)-2,3,9-trimethyl-6H-thieno[3,2-f][1,2,4]triazolo[4,3-a][1,4]diazepin-6-yl)acetamido)propyl)piperazin-1-yl)methyl)piperidin-1-yl)pyrimidine-5-carboxamide], < 50 nM. Under `CCNC(=O)C[C@@H]1N=C(c2cccc(OCCOCCOC3CCN(c4ncc(C(=O)N[C@H]5C(C)(C)[C@H](Oc6ccc(C#N)c(Cl)c6)C5(C)C)cn4)CC3)c2)c2c(sc(C)c2C)-n2c(C)nnc21` [Compound I-47, N-((1r,3r)-3-(3-chloro-4-cyanophenoxy)-2,2,4,4-tetramethylcyclobutyl)-2-(4-(2-(2-(3-((S)-6-(2-(ethylamino)-2-oxoethyl)-2,3,9-trimethyl-6H-thieno[3,2-f][1,2,4]triazolo[4,3-a][1,4]diazepin-4-yl)phenoxy)ethoxy)ethoxy)piperidin-1-yl)pyrimidine-5-carboxamide] stands < 50 nM; under `Cc1sc2c(c1C)C(c1cccc(OCCOCCOC3CCN(c4ncc(C(=O)N[C@H]5C(C)(C)[C@H](Oc6ccc(C#N)c(Cl)c6)C5(C)C)cn4)CC3)c1)=N[C@@H](CC(=O)O)c1nnc(C)n1-2` [Compound I-42], < 50 nM. Under `CCNC(=O)C[C@@H]1N=C(c2ccc(OCCCN(C)c3ncc(C(=O)N[C@H]4C(C)(C)[C@H](Oc5ccc(C#N)c(Cl)c5)C4(C)C)cn3)cc2)c2c(sc(C)c2C)-n2c(C)nnc21` [Compound I-81] stands < 50 nM; under `Cc1sc2c(c1C)C(c1ccc(Cl)cc1)=N[C@@H](CC(=O)NCCCN1CCN(CCCN(C)c3ncc(C(=O)N[C@H]4C(C)(C)[C@H](Oc5ccc(C#N)c(Cl)c5)C4(C)C)cn3)CC1)c1nnc(C)n1-2` [Compound I-5, N-((1r,3r)-3-(3-chloro-4-cyanophenoxy)-2,2,4,4-tetramethylcyclobutyl)-2-((3-(4-(3-(2-((S)-4-(4-chlorophenyl)-2,3,9-trimethyl-6H-thieno[3,2-f][1,2,4]triazolo[4,3-a][1,4]diazepin-6-yl)acetamido)propyl)piperazin-1-yl)propyl)(methyl)amino)pyrimidine-5-carboxamide], < 50 nM; under `CCNC(=O)C[C@@H]1N=C(c2ccc(N3CC(N(C)C4CN(c5ncc(C(=O)N[C@H]6C(C)(C)[C@H](Oc7ccc(C#N)c(Cl)c7)C6(C)C)cn5)C4)C3)cc2)c2c(sc(C)c2C)-n2c(C)nnc21` [Compound I-121], < 50 nM. Consider `CCNC(=O)C[C@@H]1N=C(c2ccc(N3CCC(CN4CC(Oc5ncc(C(=O)N[C@H]6C(C)(C)[C@H](Oc7ccc(C#N)c(Cl)c7)C6(C)C)cn5)C4)CC3)cc2)c2c(sc(C)c2C)-n2c(C)nnc21` [Compound I-124], for which the equilibrium dissociation constant (Kd) is < 50 nM. Take `Cc1sc2c(c1C)C(c1ccc(Cl)cc1)=N[C@H](CC(=O)NCCOCCOCCOCCOC1CCN(c3ncc(C(=O)N[C@H]4C(C)(C)[C@H](Oc5ccc(C#N)c(Cl)c5)C4(C)C)cn3)CC1)c1nnc(C)n1-2` [Compound I-13]: the Kd was < 50 nM. As to `Cc1sc2c(c1C)C(c1ccc(CC3CC4(CCN(c5ncc(C(=O)N[C@H]6C(C)(C)[C@H](Oc7ccc(C#N)c(Cl)c7)C6(C)C)cn5)CC4)C3)cc1)=N[C@@H](C)c1nnc(C)n1-2` [Compound I-303], the Kd is < 50 nM. As for `Cc1sc2c(c1C)C(c1ccc(Cl)cc1)=N[C@H](CC(=O)NCCOCCOCCOCCOCCN(C)c1ncc(C(=O)N[C@H]3C(C)(C)[C@H](Oc4ccc(C#N)c(Cl)c4)C3(C)C)cn1)c1nnc(C)n1-2` [Compound I-19], the Kd is < 50 nM. As for `CCNC(=O)C[C@@H]1N=C(c2ccc(N3CCC(OC4CCN(c5ncc(C(=O)N[C@H]6C(C)(C)[C@H](Oc7ccc(C#N)c(Cl)c7)C6(C)C)cn5)CC4)CC3)cc2)c2c(sc(C)c2C)-n2c(C)nnc21` [Compound I-114], the dissociation constant (Kd) was < 50 nM. Regarding `CCNC(=O)C[C@@H]1N=C(c2ccc(OCCCCc3ncc(C(=O)N[C@H]4C(C)(C)[C@H](Oc5ccc(C#N)c(Cl)c5)C4(C)C)cn3)cc2)c2c(sc(C)c2C)-n2c(C)nnc21` [Compound I-86], the equilibrium dissociation constant (Kd) is < 50 nM.

On to `Cc1sc2c(c1C)C(c1ccc(Cl)cc1)=N[C@@H](CC(=O)NCCOCCOCCOCC1CN(c3ncc(C(=O)N[C@H]4C(C)(C)[C@H](Oc5ccc(C#N)c(Cl)c5)C4(C)C)cn3)C1)c1nnc(C)n1-2` [Compound I-18], for which the equilibrium dissociation constant (Kd) is < 50 nM.

Consider `Cc1sc2c(c1C)C(c1cccc(OCCOCCOCCOC3CCN(c4ncc(C(=O)N[C@H]5C(C)(C)[C@H](Oc6ccc(C#N)c(Cl)c6)C5(C)C)cn4)CC3)c1)=N[C@@H](CC(=O)O)c1nnc(C)n1-2` [Compound I-43], for which the Kd is < 50 nM. Under `CCNC(=O)C[C@@H]1N=C(c2cccc(OCCOCCOCCOC3CCN(c4ncc(C(=O)N[C@H]5C(C)(C)[C@H](Oc6ccc(C#N)c(Cl)c6)C5(C)C)cn4)CC3)c2)c2c(sc(C)c2C)-n2c(C)nnc21` [Compound I-48, N-((1r,3r)-3-(3-chloro-4-cyanophenoxy)-2,2,4,4-tetramethylcyclobutyl)-2-(4-(2-(2-(2-(3-((S)-6-(2-(ethylamino)-2-oxoethyl)-2,3,9-trimethyl-6H-thieno[3,2-f][1,2,4]triazolo[4,3-a][1,4]diazepin-4-yl)phenoxy)ethoxy)ethoxy)ethoxy)piperidin-1-yl)pyrimidine-5-carboxamide] stands < 50 nM; under `Cc1sc2c(c1C)C(c1ccc(Cl)cc1)=N[C@@H](CC(=O)NCCCCOCCOC1CCN(c3ncc(C(=O)N[C@H]4C(C)(C)[C@H](Oc5ccc(C#N)c(Cl)c5)C4(C)C)cn3)CC1)c1nnc(C)n1-2` [Compound I-28], < 50 nM. Consider `Cc1sc2c(c1C)C(c1ccc(Cl)cc1)=N[C@@H](CC(=O)NCCCN1CCN(CCCOC3CCN(c4ncc(C(=O)N[C@H]5C(C)(C)[C@H](Oc6ccc(C#N)c(Cl)c6)C5(C)C)cn4)CC3)CC1)c1nnc(C)n1-2` [Compound I-10], for which the dissociation constant (Kd) is < 50 nM. For the compound `CCNC(=O)C[C@@H]1N=C(c2ccc(N3CCC(N(C)C4CN(c5ncc(C(=O)N[C@H]6C(C)(C)[C@H](Oc7ccc(C#N)c(Cl)c7)C6(C)C)cn5)C4)CC3)cc2)c2c(sc(C)c2C)-n2c(C)nnc21` [Compound I-123], the Kd is < 50 nM. Turning to `CCNC(=O)C[C@@H]1N=C(c2ccc(OCCOCCOCCOC3CCN(c4ncc(C(=O)N[C@H]5C(C)(C)[C@H](Oc6ccc(C#N)c(Cl)c6)C5(C)C)cn4)CC3)cc2)c2c(sc(C)c2C)-n2c(C)nnc21` [Compound I-45, N-((1r,3r)-3-(3-chloro-4-cyanophenoxy)-2,2,4,4-tetramethylcyclobutyl)-2-(4-(2-(2-(2-(4-((S)-6-(2-(ethylamino)-2-oxoethyl)-2,3,9-trimethyl-6H-thieno[3,2-f][1,2,4]triazolo[4,3-a][1,4]diazepin-4-yl)phenoxy)ethoxy)ethoxy)ethoxy)piperidin-1-yl)pyrimidine-5-carboxamide], the equilibrium dissociation constant (Kd) was < 50 nM. In the case of `Cc1sc2c(c1C)C(c1ccc(Cl)cc1)=N[C@@H](CC(=O)NCCN(C)c1ncc(C(=O)N[C@H]3C(C)(C)[C@H](Oc4ccc(C#N)c(Cl)c4)C3(C)C)cn1)c1nnc(C)n1-2` [Compound I-1, N-[3-(3-chloro-4-cyano-phenoxy)-2,2,4,4-tetramethyl-cyclobutyl]-2-[2-[[2-[(9S)-7-(4-chlorophenyl)-4,5,13-trimethyl-3-thia-1,8,11,12-tetrazatricyclo[8.3.0.02,6]trideca-2(6),4,7,10,12-pentaen-9-yl]acetyl]amino]ethyl-methyl-amino]pyrimidine-5-carboxamide], the dissociation constant (Kd) was < 50 nM.
